Legend:
[1] = system: healthy postmenopausal females; experiment: Phase I clinical trial: tolerability and preliminary efficacy, voiding diary; format: in vivo, human
Experimental: A clinical trial was performed to evaluate the tolerability and preliminary efficacy of tarafenacin tartrate in healthy postmenopausal females.
Twelve subjects from 50 to 70 years old were randomized to receive tarafenacin tartrate 0.125 mg, 0.4 mg or placebo o.d. for 17 days. Subjects filled a diary to record time and volume of each void. A descriptive analysis was performed.

[2] = Hygroscopicity study at controlled relative humidity; format: physicochemical; set-up: mass gain or mass loss: unit not given here
[3] = Equilibrium solubility of the D-tartrate salt in several solvents at 25° C.; format: physicochemical; conditions: for solubility: thermodynamic from solid, 25° C., measured as the free base
[4] = Physicochemical stability and hygroscopicity of the salts on storage; conditions: for physicochemical stability (in words): storage or formulation, room and enhanced temperature, high humidity, aqueous media
Excerpt: Compound I is also disclosed in WO2004000840. On the other hand, compound I is exemplified as hydrochloride salt in WO2003053966 as an intermediate in the synthesis of other compounds. […] Upon storage or formulation of said known salt, progressive decomposition and concomitantly an increase in the amount and number of impurities was observed. Obviously, this problem is further aggravated under demanding environmental conditions such as light, heat, humidity or acidity.
It has been particularly difficult to find stable, crystalline forms of (R)-3-fluorophenyl-3,4,5-trifluorobenzylcarbamic acid 1-azabicyclo[2.2.2]oct-3-yl ester. […] Thus, there remains a need for a salt of (R)-3-fluorophenyl-3,4,5-trifluorobenzylcarbamic acid 1-azabicyclo[2.2.2]oct-3-yl ester that forms a crystalline solid that has a desirable morphology, be stable in the presence of water and under conditions of a high relative humidity (above 85%) and can readily be prepared on a large scale.

[5] = Salt screening of compound I with several acids (aspect of the salt); format: physicochemical; conditions: free base and acid in hot ethanol, cooled, solvent evaporated
Experimental: To select the most suitable salt of compound I and minimize the undesirable hygroscopic properties of the hydrochloride, several acids were tested. The free base of compound I was dissolved in hot ethanol, and then acid solution in hot ethanol was added. The mixture was then stirred and heated for 30 min. After cooling to room temperature, the solvent was removed by evaporation. […]

## O=C(O)C(O)C(O)C(=O)O.O=C(O[C@H]1CN2CCC1CC2)N(Cc1cc(F)c(F)c(F)c1)c1cccc(F)c1 [D-tartrate salt, D-tartrate salt of (R)-3-fluorophenyl-3,4,5-trifluorobenzylcarbamic acid 1-azabicyclo[2.2.2]oct-3-yl ester]
[1]; 0.125 mg and 0.4 mg o.d. for 17 days
  effect on the volume of urine per void (in words): A dose-relationship was observed
[1]; 0.125 mg group, day 0
  number of voids per day: 7.6 times per day
[1]; 0.125 mg group, day 17
  number of voids per day: 6.8 times per day
[1]; 0.125 mg o.d., from day 10 until day 17 (steady state)
  volume per void: 450 to 550 mL
[1]; 0.4 mg group, day 0
  number of voids per day: 8 times per day
[1]; 0.4 mg group, day 17
  number of voids per day: 6.4 times per day
[1]; 0.4 mg o.d., from day 2 until the end of the study
  mean volumes per void: 550 to 650 mL
[2]; 12% RH, 4 h
  mass gain or mass loss: −0.26
[2]; 12% RH, 8 h
  mass gain or mass loss: −0.20
[2]; 12% RH, 14 h
  mass gain or mass loss: −0.30
[2]; 12% RH, 48 h
  mass gain or mass loss: −0.04
[2]; 12% RH, 96 h
  mass gain or mass loss: −0.30
[2]; 12% RH, 144 h
  mass gain or mass loss: −0.33
[2]; 12% RH, 168 h
  mass gain or mass loss: −0.32
[2]; 12% RH, 192 h
  mass gain or mass loss: −0.27
[2]; 12% RH, 216 h
  mass gain or mass loss: −0.29
[2]; 12% RH, 240 h
  mass gain or mass loss: −0.08
[2]; 22% RH, 4 h
  mass gain or mass loss: −0.16
[2]; 22% RH, 8 h
  mass gain or mass loss: −0.26
[2]; 22% RH, 14 h
  mass gain or mass loss: −0.25
[2]; 22% RH, 48 h
  mass gain or mass loss: −0.21
[2]; 22% RH, 96 h
  mass gain or mass loss: −0.26
[2]; 22% RH, 144 h
  mass gain or mass loss: −0.18
[2]; 22% RH, 168 h
  mass gain or mass loss: −0.28
[2]; 22% RH, 192 h
  mass gain or mass loss: −0.21
[2]; 22% RH, 216 h
  mass gain or mass loss: −0.19
[2]; 22% RH, 240 h
  mass gain or mass loss: −0.11
[2]; 33% RH, 4 h
  mass gain or mass loss: −0.25
[2]; 33% RH, 8 h
  mass gain or mass loss: −0.24
[2]; 33% RH, 14 h
  mass gain or mass loss: −0.21
[2]; 33% RH, 48 h
  mass gain or mass loss: −0.19
[2]; 33% RH, 96 h
  mass gain or mass loss: −0.17
[2]; 33% RH, 144 h
  mass gain or mass loss: −0.30
[2]; 33% RH, 168 h
  mass gain or mass loss: −0.39
[2]; 33% RH, 192 h
  mass gain or mass loss: −0.11
[2]; 33% RH, 216 h
  mass gain or mass loss: −0.15
[2]; 33% RH, 240 h
  mass gain or mass loss: −0.18
[2]; 43% RH, 4 h
  mass gain or mass loss: −0.38
[2]; 43% RH, 8 h
  mass gain or mass loss: −0.32
[2]; 43% RH, 14 h
  mass gain or mass loss: −0.21
[2]; 43% RH, 48 h
  mass gain or mass loss: −0.25
[2]; 43% RH, 96 h
  mass gain or mass loss: −0.30
[2]; 43% RH, 144 h
  mass gain or mass loss: −0.40
[2]; 43% RH, 168 h
  mass gain or mass loss: −0.34
[2]; 43% RH, 192 h
  mass gain or mass loss: −0.19
[2]; 43% RH, 216 h
  mass gain or mass loss: −0.25
[2]; 43% RH, 240 h
  mass gain or mass loss: −0.18
[2]; 53% RH, 4 h
  mass gain or mass loss: −0.19
[2]; 53% RH, 8 h
  mass gain or mass loss: −0.21
[2]; 53% RH, 14 h
  mass gain or mass loss: −0.16
[2]; 53% RH, 48 h
  mass gain or mass loss: −0.17
[2]; 53% RH, 96 h
  mass gain or mass loss: −0.19
[2]; 53% RH, 144 h
  mass gain or mass loss: −0.17
[2]; 53% RH, 168 h
  mass gain or mass loss: −0.16
[2]; 53% RH, 192 h
  mass gain or mass loss: −0.20
[2]; 53% RH, 216 h
  mass gain or mass loss: −0.14
[2]; 53% RH, 240 h
  mass gain or mass loss: 0.00
[2]; 64% RH, 4 h
  mass gain or mass loss: −0.08
[2]; 64% RH, 8 h
  mass gain or mass loss: −0.07
[2]; 64% RH, 14 h
  mass gain or mass loss: −0.07
[2]; 64% RH, 48 h
  mass gain or mass loss: 0.02
[2]; 64% RH, 96 h
  mass gain or mass loss: −0.07
[2]; 64% RH, 144 h
  mass gain or mass loss: 0.15
[2]; 64% RH, 168 h
  mass gain or mass loss: 0.15
[2]; 64% RH, 192 h
  mass gain or mass loss: 0.20
[2]; 64% RH, 216 h
  mass gain or mass loss: 0.25
[2]; 64% RH, 240 h
  mass gain or mass loss: 0.59
[2]; 75% RH, 4 h
  mass gain or mass loss: −0.08
[2]; 75% RH, 8 h
  mass gain or mass loss: 0.02
[2]; 75% RH, 14 h
  mass gain or mass loss: 0.01
[2]; 75% RH, 48 h
  mass gain or mass loss: 0.06
[2]; 75% RH, 96 h
  mass gain or mass loss: −0.06
[2]; 75% RH, 144 h
  mass gain or mass loss: −0.08
[2]; 75% RH, 168 h
  mass gain or mass loss: −0.05
[2]; 75% RH, 192 h
  mass gain or mass loss: 0.00
[2]; 75% RH, 216 h
  mass gain or mass loss: 0.01
[2]; 75% RH, 240 h
  mass gain or mass loss: 0.29
[2]; 85% RH, 4 h
  mass gain or mass loss: 0.16
[2]; 85% RH, 8 h
  mass gain or mass loss: 0.13
[2]; 85% RH, 14 h
  mass gain or mass loss: 0.22
[2]; 85% RH, 48 h
  mass gain or mass loss: 0.26
[2]; 85% RH, 96 h
  mass gain or mass loss: 0.07
[2]; 85% RH, 144 h
  mass gain or mass loss: 0.24
[2]; 85% RH, 168 h
  mass gain or mass loss: 0.18
[2]; 85% RH, 192 h
  mass gain or mass loss: 0.15
[2]; 85% RH, 216 h
  mass gain or mass loss: 0.23
[2]; 85% RH, 240 h
  mass gain or mass loss: 0.59
[2]; 93% RH or below
  mass gain or mass loss (in words): No significant mass gain or mass loss
[2]; 93% RH, 4 h
  mass gain or mass loss: 0.16
[2]; 93% RH, 8 h
  mass gain or mass loss: 0.03
[2]; 93% RH, 14 h
  mass gain or mass loss: 0.24
[2]; 93% RH, 48 h
  mass gain or mass loss: 0.44
[2]; 93% RH, 96 h
  mass gain or mass loss: 0.40
[2]; 93% RH, 144 h
  mass gain or mass loss: 0.43
[2]; 93% RH, 168 h
  mass gain or mass loss: 0.39
[2]; 93% RH, 192 h
  mass gain or mass loss: 0.38
[2]; 93% RH, 216 h
  mass gain or mass loss: 0.43
[2]; 93% RH, 240 h
  mass gain or mass loss: 0.81
[2]; 97% RH
  water addition (in words): significant water addition issue
[2]; 97% RH, 4 h
  mass gain or mass loss: 1.51
[2]; 97% RH, 8 h
  mass gain or mass loss: 1.06
[2]; 97% RH, 14 h
  mass gain or mass loss: 4.36
[2]; 97% RH, 48 h
  mass gain or mass loss: 7.86
[2]; 97% RH, 96 h
  mass gain or mass loss: 13.77
[2]; 97% RH, 144 h
  mass gain or mass loss: 23.58
[2]; 97% RH, 168 h
  mass gain or mass loss: 23.62
[2]; 97% RH, 192 h
  mass gain or mass loss: 23.06
[2]; 97% RH, 216 h
  mass gain or mass loss: 22.13
[2]; 97% RH, 240 h
  mass gain or mass loss: 19.88
[2]; before the hygroscopicity study
  KF initial: HYGR[…] (KF initial = 0.9692%)
[3]; aqueous buffer, 0.1N sodium hydroxide
  solubility: 90 µg/mL
[3]; crystalline form, water
  solubility in water (in words): highly soluble in water
[3]; organic solvent or mixture, Dichloromethane
  solubility: 2200 µg/mL
[3]; organic solvent or mixture, Ethanol
  solubility: 10000 µg/mL
[3]; organic solvent or mixture, Hexane
  solubility: 300 µg/mL
[3]; organic solvent or mixture, Isopropyl alcohol
  solubility: 1500 µg/mL
[3]; organic solvent or mixture, Methanol
  solubility: 258000 µg/mL
[3]; organic solvent or mixture, n-Octanol
  solubility: 500 µg/mL
[3]; simulated gastric fluid, 0.1 Hydrochloric acid
  solubility: 367000 µg/mL
[3]; Water
  solubility: 251000 µg/mL
[4]
  hygroscopicity (in words): relatively non-hygroscopic
  physicochemical stability (in words): more stable than the hydrochloride salt
[4]; listed as Form I
  physicochemical stability (in words): stable at room temperature
[5]; listed as D-Tartaric
  Aspect of the salt: White solid crystal precipitated in EtOH.
[5]; listed as salt obtained with D-tartaric acid
  Aspect of the salt: non-hygroscopic solid crystal

From patent US8871787B2, “Stable crystalline salt of (R)-3-fluorophenyl-3,4,5-trifluorobenzylcarbamic acid 1-azabicyclo [2.2.2]oct-3-yl ester” (Laboratorios Salvat, S.A., priority 2007, dated 2014)
